Assays:
human Gal-1 (hGal-1) = assay: Competitive binding assay: binding of biotinylated hGal-1 to microplate-adsorbed asialofetuin (ASF); details: Activities on hGal-1; mean values of several measurements
Summary of the method: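 Spectrophotometric readout (streptavidin-peroxidase, ABTS) of biotinylated galectin retained on ASF-coated wells. Biotinylated hGal-1 or hGal-3, 300-1000 ng/mL, co-incubated with test compound 3 h at 4° C, then washed. Mean IC50 from repeat runs.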

human Gal-3 (hGal-3) = human Gal-3 (hGal-3) (Homo sapiens (Human), UniProt P17931); assay: Competitive binding assay: binding of biotinylated hGal-3 to microplate-adsorbed asialofetuin (ASF); details: Activity on hGal-3; mean values of several measurements
human Gal-3 (hGal-3), sequence (P17931 whole entry): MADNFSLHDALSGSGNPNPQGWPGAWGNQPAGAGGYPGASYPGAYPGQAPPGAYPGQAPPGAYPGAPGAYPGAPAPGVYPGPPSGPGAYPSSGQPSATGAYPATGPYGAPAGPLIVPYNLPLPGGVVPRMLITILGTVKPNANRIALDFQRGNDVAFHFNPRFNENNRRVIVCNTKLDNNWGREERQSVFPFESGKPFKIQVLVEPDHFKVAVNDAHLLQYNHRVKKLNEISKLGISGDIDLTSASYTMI
Summary of the method: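 For hGal-1, a variant with all six cysteines replaced by serines is preferred. Either galectin, biotinylated at 300-1000 ng/mL, competes with compound for microplate-bound ASF over 3 h at 4° C; peroxidase/ABTS detection gives IC50, averaged.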

human Gal-1 (hGal-1), sequence (P09382 2-135 limits assumed): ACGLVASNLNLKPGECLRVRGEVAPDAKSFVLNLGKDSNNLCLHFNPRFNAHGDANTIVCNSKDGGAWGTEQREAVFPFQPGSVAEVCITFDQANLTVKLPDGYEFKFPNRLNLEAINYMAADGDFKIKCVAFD

Structure (SMILES) | IC50 (human Gal-1 (hGal-1)) | IC50 (human Gal-3 (hGal-3))
CO[C@@H]1[C@@H](n2cc(-c3ccc(Cl)c(F)c3F)nn2)[C@@H](O)[C@@H](CO)O[C@@H]1Cc1cc(C(C)(C)O)on1 [Ex 1.242] | 2900 nM | 68 nM
OC[C@H]1O[C@H](Cc2cc(C3CCN(c4nc5ccccc5s4)CC3)on2)[C@H](O)[C@@H](n2cc(-c3cc(F)c(F)c(F)c3)nn2)[C@H]1O [Ex 1.86] | > 100000 nM | 89 nM
COc1ccc(C2=NO[C@@H](C[C@H]3O[C@H](CO)[C@H](O)[C@H](n4cc(-c5cc(F)c(F)c(F)c5)nn4)[C@H]3O)C2)cc1 [Ex 1.04] | > 100000 nM | 580 nM
CO[C@@H]1[C@@H](n2cc(-c3cc(F)c(F)c(F)c3)nn2)[C@@H](O)[C@@H](CO)O[C@@H]1Cc1cc(C2(O)CCNCC2)on1 [Ex 1.133] | 10700 nM | 230 nM
CO[C@@H]1[C@@H](n2cc(-c3ccc(Cl)c(F)c3)nn2)[C@@H](O)[C@@H](CO)O[C@@H]1CC1CC(C2CCN(C(=O)OC(C)(C)C)CC2)=NO1 (some centres unmarked) [Ex 1.116] | 1750 nM | 170 nM
CO[C@@H]1[C@@H](n2cc(-c3ccc(C)c(F)c3)nn2)[C@@H](O)[C@@H](CO)O[C@@H]1Cc1cc(C(C)(C)C)on1 [Ex 1.189] | 5430 nM | 170 nM
CC(C)(C)OC(=O)N1CCC(C2=NOC(C[C@H]3O[C@H](CO)[C@H](O)[C@H](n4cc(-c5ccc(C#N)c(F)c5)nn4)[C@H]3O)C2)CC1 (some centres unmarked) [Ex 1.100] | 4900 nM | 650 nM
CO[C@@H]1[C@@H](n2cc(-c3cc(F)c(F)c(F)c3)nn2)[C@@H](O)[C@@H](CO)O[C@@H]1CC1CC(C2CCCC2)=NO1 (some centres unmarked) [Ex 1.12] | 3550 nM | 670 nM
CO[C@@H]1[C@@H](n2cc(-c3cccc(F)c3)nn2)[C@@H](O)[C@@H](CO)O[C@@H]1CC1CC(C2CCN(C(=O)OC(C)(C)C)CC2)=NO1 (some centres unmarked) [Ex 1.115] | 940 nM | 440 nM
COc1cc(-c2cn([C@H]3[C@@H](O)[C@@H](CO)O[C@H](CC4CC(C5CCN(C(=O)OC(C)(C)C)CC5)=NO4)[C@@H]3O)nn2)ccc1Cl (some centres unmarked) [Ex 1.110] | 2240 nM | 250 nM
CO[C@@H]1[C@@H](n2cc(-c3cc(F)c(F)c(F)c3)nn2)[C@@H](O)[C@@H](CO)O[C@@H]1Cc1cc(C2CCCCC2)no1 [Ex 1.120] | 10600 nM | 290 nM
CO[C@@H]1[C@@H](n2cc(-c3ccc(C)c(F)c3F)nn2)[C@@H](O)[C@@H](CO)O[C@@H]1Cc1cc(C2(C)CCCC2)on1 [Ex 1.274] | 5540 nM | 110 nM

The remaining lines, values ahead:

IC50 (human Gal-1 (hGal-1)) | IC50 (human Gal-3 (hGal-3)) | Structure (SMILES)
980 nM | 42 nM | CO[C@@H]1[C@@H](n2cc(-c3cc(F)c(F)c(F)c3)nn2)[C@@H](O)[C@@H](CO)O[C@@H]1Cc1cc(C2CCN(C(=O)NC3CC3)CC2)on1 [Example 3.59, N-cyclopropyl-4-(3-(((2R,3R,4S,5R,6R)-5-hydroxy-6-(hydroxymethyl)-3-methoxy-4-(4-(3,4,5-trifluorophenyl)-1H-1,2,3-triazol-1-yl)tetrahydro-2H-pyran-2-yl)methyl)isoxazol-5-yl)piperidine-1-carboxamide]
5500 nM | 620 nM | CC(=O)N1CCC(C2=NO[C@@H](C[C@H]3O[C@H](CO)[C@H](O)[C@H](n4cc(-c5cc(F)c(F)c(F)c5)nn4)[C@H]3O)C2)CC1 [Example 3.10, 1-(4-((R)-5-(((2R,3R,4R,5R,6R)-3,5-dihydroxy-6-(hydroxymethyl)-4-(4-(3,4,5-trifluorophenyl)-1H-1,2,3-triazol-1-yl)tetrahydro-2H-pyran-2-yl)methyl)-4,5-dihydroisoxazol-3-yl)piperidin-1-yl)ethan-1-one]
1380 nM | 130 nM | COCC(C)(C)c1cc(C[C@H]2O[C@H](CO)[C@H](O)[C@H](n3cc(-c4cc(F)c(F)c(F)c4)nn3)[C@H]2OC)on1 [Ex 1.314]
2470 nM | 170 nM | CO[C@@H]1[C@@H](n2cc(-c3cc(F)c(F)c(F)c3)nn2)[C@@H](O)[C@@H](CO)O[C@@H]1Cc1cc(C2CCN(C(=O)N(C)C)CC2)on1 [Example 3.69, 4-(3-(((2R,3R,4S,5R,6R)-5-hydroxy-6-(hydroxymethyl)-3-methoxy-4-(4-(3,4,5-trifluorophenyl)-1H-1,2,3-triazol-1-yl)tetrahydro-2H-pyran-2-yl)methyl)isoxazol-5-yl)-N,N-dimethylpiperidine-1-carboxamide]
13300 nM | 840 nM | OC[C@H]1O[C@H](CC2=NOC(C3CCNCC3)C2)[C@H](O)[C@@H](n2cc(-c3cc(F)c(F)c(F)c3)nn2)[C@H]1O (mixture of isomers) [Example 3.09, (2R,3R,4R,5R,6R)-2-(hydroxymethyl)-6-(((RS)-5-(piperidin-4-yl)-4,5-dihydroisoxazol-3-yl)methyl)-4-(4-(3,4,5-trifluorophenyl)-1H-1,2,3-triazol-1-yl)tetrahydro-2H-pyran-3,5-diol]
1730 nM | 74 nM | CO[C@@H]1[C@@H](n2cc(-c3ccc(Cl)c(F)c3F)nn2)[C@@H](O)[C@@H](CO)O[C@@H]1Cc1cc(C(C)(C)O)no1 [Example 2.63, (2R,3R,4S,5R,6R)-4-(4-(4-chloro-2,3-difluorophenyl)-1H-1,2,3-triazol-1-yl)-2-(hydroxymethyl)-6-((3-(2-hydroxypropan-2-yl)isoxazol-5-yl)methyl)-5-methoxytetrahydro-2H-pyran-3-ol]
280 nM | 190 nM | CO[C@@H]1[C@@H](n2cc(-c3cc(F)c(F)c(F)c3)nn2)[C@@H](O)[C@@H](CO)O[C@@H]1CC1CN(C2CCN(C(=O)C(C)C)CC2)C(=O)O1 (mixture of isomers) [Example 5.10, (RS)-5-(((2R,3R,4S,5R,6R)-5-hydroxy-6-(hydroxymethyl)-3-methoxy-4-(4-(3,4,5-trifluorophenyl)-1H-1,2,3-triazol-1-yl)tetrahydro-2H-pyran-2-yl)methyl)-3-(1-isobutyrylpiperidin-4-yl)oxazolidin-2-one]
1980 nM | 72 nM | CO[C@@H]1[C@@H](n2cc(-c3cc(F)c(F)c(F)c3)nn2)[C@@H](O)[C@@H](CO)O[C@@H]1Cc1cc(C2CCC(NC(=O)[C@@H](N)C(C)C)CC2)no1 (stereo partly drawn) [Example 2.30, (S)-2-amino-N-((1R,4S)-4-(5-(((2R,3R,4S,5R,6R)-5-hydroxy-6-(hydroxymethyl)-3-methoxy-4-(4-(3,4,5-trifluorophenyl)-1H-1,2,3-triazol-1-yl)tetrahydro-2H-pyran-2-yl)methyl)isoxazol-3-yl)cyclohexyl)-3-methylbutanamide]
1870 nM | 28 nM | CC(=O)O[C@@H]1[C@@H](n2cc(-c3cc(F)c(F)c(F)c3)nn2)[C@@H](O)[C@@H](CO)O[C@@H]1Cc1cc(C2CCN(C(C)=O)CC2)on1 [Example 3.22, (2R,3R,4S,5R,6R)-2-((5-(1-acetylpiperidin-4-yl)isoxazol-3-yl)methyl)-5-hydroxy-6-(hydroxymethyl)-4-(4-(3,4,5-trifluorophenyl)-1H-1,2,3-triazol-1-yl)tetrahydro-2H-pyran-3-yl acetate]
7390 nM | 400 nM | CO[C@@H]1[C@@H](n2cc(-c3cc(F)c(F)c(F)c3)nn2)[C@@H](O)[C@@H](CO)O[C@@H]1Cc1cc(C(C)(C)O)no1 [Example 2.60, (2R,3R,4S,5R,6R)-2-(hydroxymethyl)-6-((3-(2-hydroxypropan-2-yl)isoxazol-5-yl)methyl)-5-methoxy-4-(4-(3,4,5-trifluorophenyl)-1H-1,2,3-triazol-1-yl)tetrahydro-2H-pyran-3-ol]
6810 nM | 130 nM | Cc1ccc(-c2cn([C@H]3[C@@H](O)[C@@H](CO)O[C@H](Cc4cc(C(C)(C)C)no4)[C@@H]3O)nn2)c(F)c1F [Example 2.50, (2R,3R,4R,5R,6R)-2-((3-(tert-butyl)isoxazol-5-yl)methyl)-4-(4-(2,3-difluoro-4-methylphenyl)-1H-1,2,3-triazol-1-yl)-6-(hydroxymethyl)tetrahydro-2H-pyran-3,5-diol]
2370 nM | 180 nM | CO[C@@H]1[C@@H](n2cc(-c3cc(F)c(F)c(F)c3)nn2)[C@@H](O)[C@@H](CO)O[C@@H]1Cc1cc(C(C)C)no1 [Ex 1.308]
890 nM | 29 nM | CC(C)(CO)c1cc(C[C@H]2O[C@H](CO)[C@H](O)[C@H](n3cc(-c4ccc(F)c(F)c4F)nn3)[C@H]2OCC(=O)O)on1 [Example 2.46, 2-(((2R,3R,4S,5R,6R)-5-hydroxy-2-((3-(1-hydroxy-2-methylpropan-2-yl)isoxazol-5-yl)methyl)-6-(hydroxymethyl)-4-(4-(2,3,4-trifluorophenyl)-1H-1,2,3-triazol-1-yl)tetrahydro-2H-pyran-3-yl)oxy)acetic acid]
890 nM | 37 nM | CO[C@@H]1[C@@H](n2cc(-c3cc(F)c(F)c(F)c3)nn2)[C@@H](O)[C@@H](CO)O[C@@H]1CN1CC(=O)N(C2CCOCC2)C1 [Example 6.10, 1-(((2R,3R,4S,5R,6R)-5-hydroxy-6-(hydroxymethyl)-3-methoxy-4-(4-(3,4,5-trifluorophenyl)-1H-1,2,3-triazol-1-yl)tetrahydro-2H-pyran-2-yl)methyl)-3-(tetrahydro-2H-pyran-4-yl)imidazolidin-4-one]
550 nM | 300 nM | O=c1cc(C2=NOC(C[C@H]3O[C@H](CO)[C@H](O)[C@H](n4cc(-c5cc(F)c(F)c(F)c5)nn4)[C@H]3O)C2)cc[nH]1 (mixture of isomers) [Example 2.03]
11800 nM | 1240 nM | COC1CCC(N2C[C@H](C[C@H]3O[C@H](CO)[C@H](O)[C@H](n4cc(-c5cc(F)c(F)c(F)c5)nn4)[C@H]3OC)OC2=O)CC1 (mixture of isomers) [Example 5.26, (RS)-5-(((2R,3R,4S,5R,6R)-5-hydroxy-6-(hydroxymethyl)-3-methoxy-4-(4-(3,4,5-trifluorophenyl)-1H-1,2,3-triazol-1-yl)tetrahydro-2H-pyran-2-yl)methyl)-3-((1s,4S)-4-methoxycyclohexyl)oxazolidin-2-one]

From US12319672B2, “Alpha-D-galactopyranoside derivatives” (Idorsia Pharmaceuticals Ltd, priority 2019, dated 2025)
